# Measured values: US20050112182A1, “Medical adhesive and medical covering agent using ultraviolet ray curable chitosan derivative” (priority 2003, published 2005)
# System: subcutaneous tissue
# Settings: dog, in vivo
# Method: The adaptability to an organism was tested in respect of the medical adhesive according to one embodiment of the present invention.
# Three incision each having a length of 2 cm in the direction of the body axis were formed on the back of a dog anesthetized with acepromazine (0.5 mg/Kg) and pentobarbital (25 mg/Kg), and each of the subcutaneous regions of the incision portions was enlarged with scissors so as to have a diameter of about 2 cm.
# Three kinds of treatments (A), (B) and (C) given below were applied to each of the incision portions:
# (A) Dimethyl sulfoxide used as a reference substance was injected in an amount of 0.5 ml, and irradiation with an ultraviolet ray was not performed.
# (B) The adhesive was injected in an amount of 0.5 ml, and irradiation with an ultraviolet ray was not performed.
# (C) The adhesive was injected in an amount of 0.5 ml, and irradiation with an ultraviolet ray was performed.
# One week later, each portion was collected under a general anesthesia so as to carry out the histological analysis.
smiles,measurement,setting,value
"C[S+](C)[O-] [(A) reference, Dimethyl sulfoxide]",Adaptability to organism (recognition as foreign matter),,recognized as a foreign matter within the organism
same,Clinical inflammation reaction,,not recognized
same,"Inflammation reaction, histological",,prominent histologically
same,"Clinical inflammation reaction (pain), Second day",sc,±
same,"Clinical inflammation reaction (pain), Third day",sc,−
